Data on three molecules can be found in PMC10886891, “Enhanced Tumor Targeting and Antitumor Activity of Methylated β-Cyclodextrin-Threaded Polyrotaxanes by Conjugating Cyclic RGD Peptides” (Biomolecules, 2024).

Series [1] deals with 4T1 cells. The series can be described thus: Autophagic cell death: viability of 4T1 cells with 3-MA. Type of series: cell-based, murine. The settings on record: 2 mM 3-MA, 48 h. On the procedure:
To investigate the induction of autophagic cell death by cRGD-Me-PRXs, 4T1cells were pretreated with 2 mM 3-methyladenine (3-MA; Fujifilm Wako Pure Chemical) for 1 h, followed by treatment with cRGD-Me-PRXs (100 μM threaded β-CD) in the presence of 3-MA for 48 h at 37 °C. Cell viability was determined as described above.

Series [2] relates to various cells, such as normal cells and apoptosis-resistant cells. The settings on record: through interactions with cellular cholesterol; cited from earlier work. An excerpt:
Β-Cyclodextrin (β-CD) is a cyclic oligosaccharide comprising seven glucose units connected with α-1,4-linkages. Β-CD and its derivatives can incorporate various low-molecular-weight compounds, such as free cholesterol, into their hydrophobic cavity. […] 3-Methyladenine (3-MA) is a commonly used inhibitor of autophagy that functions by inhibiting class III phosphoinositide 3-kinase (PI3K) activity, which plays a pivotal role in autophagy induction. […] To exclude the effects of 3-MA on 4T1 cell viability, cRGD-Me-PRX-t ...

For series [3] the following is noted: among various β-CD derivatives; cited from earlier work. An excerpt: Β-Cyclodextrin (β-CD) is a cyclic oligosaccharide comprising seven glucose units connected with α-1,4-linkages. Β-CD and its derivatives can incorporate various low-molecular-weight compounds, such as free cholesterol, into their hydrophobic cavity. Recently, the therapeutic applications of β-CD derivatives have received considerable attention, because they improve the pathology of various metabolic diseases, such as Niemann–Pick type C (NPC) disease, Alzheimer’s disease, and atherosclerosis, through the removal of excess free ch ...

Series [4] in a line: Cholesterol solubilization (phase solubility). The class given is physicochemical. To be noted: pH 7.4, 24 h, 37 °C, n = 3. On the procedure: Figure 2 (A) ^1H NMR spectra of Me- N3-PRX and cRGD-Me-PRX in D2O at 25 °C. (B) FT-IR spectra of Me-N3-PRX and cRGD-Me-PRX. (C) Time course of the cleavage of N-Trt end groups in Me-PRX, cRGD-Me-PRX, and cRGE-Me-PRX at pH 7.4 (open symbols) and pH 5.0 (closed symbols) at 37 °C. The data are expressed as the mean ± SD (n = 3). (D) Phase-solubility diagrams of cholesterol with Me-β-CD, cRGD-Me-β-CD, Me-PRX, cRGD-Me-PRX, and cRGE-Me-PRX at pH 7.4 (brown bars) and pH 5.0 (blue bars). The solubility of cholesterol was determined after incubation for 24 h at 37 °C. The data are expressed as the mean ± SD (n = 3; **** p < 0.0001; ns: not significant).
Another important aspect of Me-PRXs is the ability of released β-CDs to form an inclusion complex with intracellular cholesterol, because the interaction with intracellular cholesterol contributes to the induction of cell death. To assess this, the solubility of cholesterol was measured by incubating with Me-PRXs at pH 7.4 (physiological pH) and 5.0 (lysosomal pH) for 24 h was measured (Figure 2D). […] Additionally, the number of methyl groups of cRGD-Me-β-CD (12.5) was less than that of Me-β-CD (14.0), which may explain the reduced cholesterol solubilization capacity.

Series [5] in a line: Blood chemical analysis. Type of series: in vivo, BALB/c mice. To be noted: 500 mg/kg i.v., 24 h. On the procedure: The PRXs dissolved in PBS were intravenously administered at a dose of 500 mg/kg to female BALB/c mice (8 weeks). […] Plasma levels of blood urea nitrogen (BUN), creatinine (CRE), aspartate aminotransferase (AST), alanine aminotransferase (ALT), free cholesterol (F-CHO), cholesteryl esters (E-CHO), triglycerides (TG), and glucose (GLU) were measured using a Hitachi 7180 automatic analyzer (Hitachi, Tokyo, Japan). In addition, the mice were perfused with saline, and the major organs (heart, liver, spleen, lungs, and kidneys) were collected. The organs were fixed in 10% formalin solution for 1 d and embedded in paraffin. The paraffin blocks were cut into 3 μm sections, which were successively stained with H&E solution to assess histological alterations by bright-field microscope.

A short description of series [6]: Biodistribution in 4T1 tumor-bearing mice. Type of series: in vivo, BALB/c mice. To be noted: 24 h after i.v., Cy5.5-labeled; 500 mg/kg (Figure 7), 300 mg/kg; n = 6. On the procedure: Animal experiments were approved by the Institutional Animal Care and Use Committee of Tokyo Medical and Dental University. Wild-type BALB/c mice (female, 8-weeks-old) were purchased from Japan SLC (Shizuoka, Japan). Cy5.5-labeled PRXs and CDs were intravenously administered to the mice at a dose of 300 mg/kg. After 24 h, the mice were anesthetized with an intraperitoneal injection of an anesthetized solution containing medetomidine hydrochloride (0.75 mg/kg), midazolam (4 mg/kg), and butorphanol tartrate (5 mg/kg). […] The mice were then perfused with saline, and the hearts, livers, lungs, spleens, kidneys, and tumors were harvested. The collected tissues (approximately 50 mg) were homogenized using a bead beater-type homogenizer (Beads Crusher μT-12; Taitec, Saitama, Japan) at 3000 rpm for 45 s. After centrifuging the homogenates (8000 rpm, 10 min), the supernatant was collected. The fluorescence intensities of the plasma and tissue homogenates were measured using Varioskan LUX at excitation and emission wavelengths of 673 and 707 nm, respectively. The amount of accumulated PRXs in the plasma and each tissue was calculated using the standard curve of Cy5.5-labeled Me-PRXs and Me-β-CDs, and the mean percentage of the injected dose per gram of tissue (ID %/g tissue) was determined for each sample.

Series [7] has as its system integrin αv (Itgav) mRNA in 4T1 cells. The series can be described thus: Downregulation of integrin αv by siRNA (RT-PCR). Type of series: cell-based, murine. To be noted: compared with siControl; 30 nM, 24 h, normalized to Gapdh, n = 4. On the procedure:
siRNAs against murine integrin subunit alpha V (siItgav; sense: 5′-[…]-3′, antisense: 5′-[…]-3′) and Mission siRNA universal negative control were purchased from Merck. The siRNAs were transfected into 4T1 cells using the Lipofectamine 3000 Transfection Reagent (Thermo Fisher Scientific) at 30 nM for 24 h according to the manufacturer’s instructions. Total RNA was extracted from 4T1 cells using the FastGene RNA Premium Kit (Nippon Genetics, Tokyo, Japan) following the manufacturer’s instructions. The total RNA concentration was measured using a NanoDrop One spectrophotometer (Thermo Fisher Scientific). Total RNA was then converted into cDNA using ReverTra Ace qPCR RT master mix (Toyobo, Osaka, Japan). RT-PCR was performed using the Thunderbird SYBR qPCR mix (Toyobo) on a CFX Connect Real-Time System (Bio-Rad, Hercules, CA, USA). The PCR primer sequences were as follows: murine integrin subunit alpha V (Itgav), forward: 5′-[…]-3′, reverse: 5′-[…]-3′, murine glyceraldehyde 3-phosphate dehydrogenase (Gapdh) forward: 5′-[…]-3′, reverse: 5′-[…]-3′. The PCR cycling conditions included a pre-denaturation at 95 °C for 1 min, followed by 40 cycles of denaturation at 95 °C for 15 s and extension at 60 °C for 30 s. The mRNA expression levels in each sample were determined by the comparative CT (ΔΔCT) method and were normalized to the expression levels of Gapdh.

For `Cn1cnc(N)c2ncnc1-2` [3-MA, 3-methyladenine], the “effect on 4T1 cell viability alone” value in series [1] is reported as “did not affect cell viability”.

As to Randomly methylated β-CD [Me-β-CD], the apoptosis entry in series [2] is given as “induced apoptosis”. The “ability to form inclusion complexes with free cholesterol” value in series [3] is given as “highest ability to form inclusion complexes with free cholesterol”. In series [4], the solubilization of cholesterol entry is reported as “solubilization of cholesterol was observed”. Further, the “hepatic and renal toxicity” value in series [5] is “hepatic and renal toxicities”. Moreover, in series [5] (n = 6), the “plasma AST” value was “increased”, the “plasma BUN” value is given as “increased” and the “plasma CRE” value is “increased”. The accumulation in kidney entry in series [6] is on record as “mostly accumulated in the kidney”.

For the molecule “siItgav: siRNA against murine integrin subunit alpha V; sense: 5′-GACUUAGUUGUAGGAGCUU-3′, antisense: 5′-AAGCUCCUACAACUAAGUC-3′ (chemistry not given here)”, the “expression level of integrin αv” value in series [7] came to 32.9%.
